Test results as given in patent US20030060511A1, “Method for treatment of ocular hypertension and glaucoma” (SUCAMPO AG, priority 2001, published 2003).

Legend:
[1] = tested on: IOP in Normal Monkeys; test: IOP in normal monkeys after single topical application of eye drops, saline in the other eye (Example 2); assay type: in vivo, cynomolgus monkeys; conditions: 0.005% eye drops, 30 μL/eye, IOP measured up to 24 hours, compared to saline eye
Protocol: Male cynomolgus monkeys (eight monkeys, body weights 3.0-4.5 kg) were used. To the right eyes of the monkeys, 30 μL/eye of 0.005% 13,14-dihydro-15-keto-18-phenyl-19,20-dinor-PGF2α-isopropyl ester eye drops or 0.005% 13,14-dihydro-15-keto-17-phenoxy-18,19,20-trinor-PGF2α-isopropyl ester eye drops were administered, and to the left eyes, 30 μL/eye of saline was administered. IOP of the animals were determined.
(§1) The animals were retained in the sitting position under systemic anesthesia with intramuscular injection of ketamine hydrochloride (Ketalar® 50, Sankyo Co. Ltd.) 7.5-10 mg/kg and their ocular surfaces were anesthetized with 0.4% oxybuprocaine hydrochloride (Benoxil® 0.4% solution, Santen Pharmaceuticals Co., Ltd.). After that, the IOP was measured with a pneumatonometer (Model 30 Classic, Mentor O & O, Inc.). The IOPs were measured before (0 hour) and at 2, 4, 8, 12 and 24 hours after the administration of test substances.
Changes of the IOP from that of time 0 (ΔIOP) obtained in the each test eyes ([…] eyes) were compared to those obtained in the vehicle administrated eyes (control group) at each measurement times.

[2] = tested on: IOP in Normal Monkeys; test: IOP in normal monkeys after single topical application of eye drops (Example 1); assay type: in vivo, cynomolgus monkeys; conditions: for IOP lowering (change in IOP from time 0, ΔIOP): single administration, significant vs vehicle control (Dunnett's test)
Protocol: Male cynomolgus monkeys (eight monkeys, body weights 3.0-4.5 kg) were used. To the right eyes of the monkeys, 30 μL/eye of 0.005% 13,14-dihydro-15-keto-17-phenyl-18,19,20-trinor-PGF2α-isopropyl ester eye drops, 0.005% 13,14-dihydro-17-phenyl-18,19,20-trinor-PGF2α-isopropyl ester (latanoprost) eye drops or the vehicle was administered once with an interval of at least seven days, and the IOPs in the respective animals was measured.
as §1, with “Inc.). The IOP was measured before” for “Inc.). The IOPs were measured before”, “administration of the test substances.” for “administration of test substances.”
Changes of the IOP from that of time 0 (ΔIOP) obtained in the each test groups were compared to that obtained in the vehicle-administered control group at each measurement times. Statistical analysis was made with the Dunnett's multiple comparison test. Critical rates less than 5% were evaluated to be statistically significant.

[3] = molecular target: FP receptor (Homo sapiens, UniProt P43088); conditions: background art; cited from earlier work
Chain of FP receptor (P43088 whole entry): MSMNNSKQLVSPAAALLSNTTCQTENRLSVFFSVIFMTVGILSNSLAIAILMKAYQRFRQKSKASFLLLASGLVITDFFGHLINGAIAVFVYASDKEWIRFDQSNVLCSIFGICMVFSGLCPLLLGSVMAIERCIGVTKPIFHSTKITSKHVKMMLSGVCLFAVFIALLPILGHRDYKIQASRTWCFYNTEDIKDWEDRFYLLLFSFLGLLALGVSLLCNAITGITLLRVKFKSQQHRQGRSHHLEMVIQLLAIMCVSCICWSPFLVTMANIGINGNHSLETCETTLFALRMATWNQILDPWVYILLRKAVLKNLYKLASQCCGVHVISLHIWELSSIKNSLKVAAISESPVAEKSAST

Structure (SMILES)	Duration of IOP lowering by single administration [1]	Affinity with / effect on FP receptor [3]	further results
CC(C)OC(=O)CCC/C=C\CC1C(O)CC(O)C1CCC(=O)CCOc1ccccc1 (stereo not drawn) [13,14-dihydro-15-keto-17-phenoxy-18,19,20-trinor-PGF2α-isopropyl ester]	can lower the IOP and keep the low IOP throughout a day		
CC(C)OC(=O)CCC/C=C\C[C@@H]1[C@@H](CCC(=O)CCc2ccccc2)[C@H](O)C[C@@H]1O [13,14-dihydro-15-keto-17-phenyl-18,19,20-trinor-PGF2α-isopropyl ester]			Difference of ΔIOPs versus latanoprost group ([2]; 0.005% eye drops each, at any time point of the measurement (2-24 hours)): no significant difference; Duration of IOP lowering by single administration ([2]; 0.005% eye drops, 30 μL/eye, IOP measured up to 24 hours): can lower the IOP and keep the low IOP throughout the day; IOP lowering (change in IOP from time 0, ΔIOP) ([2]; 0.005% eye drops, 30 μL/eye, 4 hours after administration): 2.3±0.4 mmHg; IOP lowering (change in IOP from time 0, ΔIOP) ([2]; 0.005% eye drops, 30 μL/eye, 8 hours after administration): 2.1±0.4 mmHg; IOP lowering (change in IOP from time 0, ΔIOP) ([2]; 0.005% eye drops, 30 μL/eye, 12 hours after administration): 2.4±0.5 mmHg
CC(C)OC(=O)CCC/C=C\CC1C(O)CC(O)C1CCC(=O)CCCc1ccccc1 (stereo not drawn) [13,14-dihydro-15-keto-18-phenyl-19,20-dinor-PGF2α-isopropyl ester]	can lower the IOP and keep the low IOP throughout a day		
CCCCC[C@H](O)/C=C/[C@@H]1[C@@H](C/C=C\CCCC(=O)O)[C@@H](O)C[C@H]1O [PGF2α]		strong affinity	
CCCCCCCC(=O)CC[C@@H]1[C@@H](C/C=C\CCCC(=O)OC(C)C)[C@@H](O)C[C@H]1O [isopropyl unoprostone, 13,14-dihydro-15-keto-20-ethyl-PGF2α-isopropyl ester]		substantially no effect	
CC(C)OC(=O)CCC/C=C\C[C@@H]1[C@@H](CC[C@@H](O)CCc2ccccc2)[C@H](O)C[C@@H]1O [latanoprost, 13,14-dihydro-17-phenyl-18,19,20-trinor-PGF2α-isopropyl ester]		strong affinity	
